Experimental findings from US10183021B2, “sGC stimulators” (Ironwood Pharmaceuticals, Inc., priority 2013, dated 2019) are described below.

Broadly, the Emax is the greatest response seen or fitted, relative to the assay's reference. A word on the pEC50: it is the negative decadic logarithm of the EC50, by convention in mol/L. What is called EC50 is the concentration that produces a half-maximal response.

pEC50: −log10 of the molar value. Some results are limits rather than exact numbers.

Experiment [1] concerns the target T1, soluble guanylate cyclase (sGC) (Homo sapiens (Human), UniProt Q02108+Q02153). The experiment in a line: sGC-HEK-cGMP assay with SNP incubation, LC/MS detection (Example 2A). Type of experiment: cell-based. Particulars: HEK293 cells, 10 μM SNP, LC/MS detection; for Emax: 100% = BAY 41-2272 at 10 μM, read-out: HEK assay Emax - unconstrained (%). Summed up: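 HEK293 cells with endogenous sGC were pretreated 15 min at 37 °C with 0.5 mM IBMX, then exposed 10 min at 37 °C to compound (added from 0.0001–30 μM solutions) plus SNP (from 10 μM solution). After 0.1 M HCl lysis, cGMP was quantified by LC/MS against a standard curve.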

The target in experiment [2] is T1, soluble guanylate cyclase (sGC). Briefly: sGC-HEK-cGMP assay with SNP incubation, HTRF detection (Example 2B). Type of experiment: cell-based. Particulars: HEK293 cells, 10 μM SNP; for Emax: 100% = BAY 41-2272 at 10 μM + 100 μM SNP, read-out: HEK assay Emax - unconstrained (%); for pEC50: read-out: HEK assay EC50 - unconstrained. The procedure:
Human embryonic kidney cells (HEK293), endogenously expressing soluble guanylate cyclase (sGC), were used to evaluate the activity of test compounds. Compounds stimulating the sGC enzyme should cause an increase in the intracellular concentration of cGMP. HEK 293 cells were seeded in Dulbecco's Modification of Eagle's Medium supplemented with fetal bovine serum (10% final) and L-glutamine (2 mM final) in a 200 μL volume at a density of 1×10^5 cells/well in a poly-D-lysine coated 96 well flat bottom plate and grown overnight at 37° C. Medium was aspirated and cells were washed with 1× Hank's Buffered Saline Salt Solution (200 μL). Cells were then incubated for 15 minutes at 37° C. with 200 μL of a 0.5 mM 3-isobutyl-1-methylxanthine (IBMX) solution. Test article and sodium nitroprusside solutions were then added to the assay mixture (2 μL each) and the resulting mixture incubated at 37° C. for 10 minutes. After the 10 minute incubation, the assay mixture was aspirated and 0.1M HCl (200 μL) was added to the cells. The plate was incubated at 4° C. for 30 minutes in the 0.1M HCl to stop the reaction and lyse the cells. The plates were then centrifuged at 1,200 g for 5 minutes at room temperature. GMP levels were determined using a cGMP HTRF assay (Cisbio Product #62GM2PEC). For each sample, 5 uL of HEK assay supernatant was diluted 1:5 in HTRF kit assay diluent and transferred to a well of the assay plate, and the HTRF assay was performed according to the HTRF kit manufacturer's instructions. Sample calculations were performed using high and low controls, where high control was supernatant from HEK assay performed in the presence of 10 uM Bay 41-2272+100 uM SNP, and the low control was the supernatant from the HEK assay performed in the presence of vehicle. A cGMP standard solution was prepared in 0.1 M HCl and diluted in order to perform a cGMP standard curve using the HTRF assay. Using Mean Ratio data from the HTRF assay, sample date were normalized according to the equation: 100*(Sample−Low Control)/(High Control−Low Control). Data were fit to a 3-parameter log agonist dose response (Top (% EMax), Bottom, log EC50) using Graphpad (Prism Software). Data in Table 4 was obtained using this modified assay procedure. (x μM concentration for test article solution and 10 μM concentration for SNP solution; wherein x is one of the following concentrations: 30 μM, 10 μM, 3 μM, 1 μM, 0.3 μM, 0.1 μM, 0.03 μM, 0.01 μM, 0.003 μM, 0.001 μM, 0.0003 μM and 0.01 nM.
On the technique in general: Time-resolved FRET reads energy transfer from a long-lived donor to a nearby acceptor.

Experiment [3] has the same target. Briefly: sGC-HEK-cGMP assay, new protocol with DETA-NONOate, LC/MS detection (Example 2C). Type of experiment: cell-based. The following applies: read-out: Absolute EC50 (uM) - binned.
For another experiment, the system named is Sprague-Dawley rats. The experiment in a line: Blood pressure change in Sprague-Dawley rats (Example 4). The experiment is classed as in vivo, rat. Particulars: conscious male Sprague-Dawley rats, PO, 10 mg/kg. The protocol: Male rats (250-350 g body weight, supplied by Harlan Laboratories) were anesthetized with ketamine/xylazine and a heparinized saline fluid filled catheter implanted into the right femoral artery. The catheter was exteriorized between the scapula, capped, and the animal allowed to recover for at least 7 days post surgery prior to any compound testing. Prior to testing animals were maintained on normal diet, with free access to drinking water, under a 12 hour light-dark cycle.
On the day of experimentation, under inhaled isoflurane anesthesia, the catheter was uncapped and connected to a tether (Instech Labs) and pressure transducer (Harvard Apparatus). Blood pressure and heart rate were subsequently captured and analyzed with a dedicated data capture system (PowerLab, ADInstruments). Data sampling rates were set at 1 cycle per second. Once connected, each rat was allowed to recover from anesthesia and baseline blood pressure and heart rate levels were established in these conscious, freely-moving animals. Once baseline was established either vehicle (0.5% methylcellulose or 100% PEG400) or test article was administered orally (PO, 10 mg/kg) and the effects on blood pressure and heart rate monitored for up to 24 hours.
Data are reported as hourly averages and changes in blood pressure are calculated from subtracting individual baseline on an hourly basis.

The mark [4] stands for this setting: top of curve not fitted to 100%, read-out: HEK assay EC50 - unconstrained.

T1 sequence (Q02153 whole entry): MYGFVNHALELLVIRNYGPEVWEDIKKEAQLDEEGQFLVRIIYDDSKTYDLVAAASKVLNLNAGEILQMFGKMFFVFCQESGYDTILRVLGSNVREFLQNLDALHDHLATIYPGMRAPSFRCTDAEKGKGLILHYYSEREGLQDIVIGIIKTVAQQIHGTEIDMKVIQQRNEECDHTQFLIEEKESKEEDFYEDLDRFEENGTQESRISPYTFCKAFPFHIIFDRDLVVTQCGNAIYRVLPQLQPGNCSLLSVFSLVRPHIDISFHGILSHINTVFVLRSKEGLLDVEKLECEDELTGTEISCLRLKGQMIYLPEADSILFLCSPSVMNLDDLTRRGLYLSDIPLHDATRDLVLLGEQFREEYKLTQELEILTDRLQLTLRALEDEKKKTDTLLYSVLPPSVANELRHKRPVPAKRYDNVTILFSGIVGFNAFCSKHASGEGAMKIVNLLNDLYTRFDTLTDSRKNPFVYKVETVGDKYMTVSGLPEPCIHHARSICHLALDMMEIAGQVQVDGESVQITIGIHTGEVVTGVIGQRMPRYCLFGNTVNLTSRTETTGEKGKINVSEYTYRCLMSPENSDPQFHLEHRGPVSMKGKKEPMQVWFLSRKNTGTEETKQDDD
T1 sequence (Q02108 whole entry): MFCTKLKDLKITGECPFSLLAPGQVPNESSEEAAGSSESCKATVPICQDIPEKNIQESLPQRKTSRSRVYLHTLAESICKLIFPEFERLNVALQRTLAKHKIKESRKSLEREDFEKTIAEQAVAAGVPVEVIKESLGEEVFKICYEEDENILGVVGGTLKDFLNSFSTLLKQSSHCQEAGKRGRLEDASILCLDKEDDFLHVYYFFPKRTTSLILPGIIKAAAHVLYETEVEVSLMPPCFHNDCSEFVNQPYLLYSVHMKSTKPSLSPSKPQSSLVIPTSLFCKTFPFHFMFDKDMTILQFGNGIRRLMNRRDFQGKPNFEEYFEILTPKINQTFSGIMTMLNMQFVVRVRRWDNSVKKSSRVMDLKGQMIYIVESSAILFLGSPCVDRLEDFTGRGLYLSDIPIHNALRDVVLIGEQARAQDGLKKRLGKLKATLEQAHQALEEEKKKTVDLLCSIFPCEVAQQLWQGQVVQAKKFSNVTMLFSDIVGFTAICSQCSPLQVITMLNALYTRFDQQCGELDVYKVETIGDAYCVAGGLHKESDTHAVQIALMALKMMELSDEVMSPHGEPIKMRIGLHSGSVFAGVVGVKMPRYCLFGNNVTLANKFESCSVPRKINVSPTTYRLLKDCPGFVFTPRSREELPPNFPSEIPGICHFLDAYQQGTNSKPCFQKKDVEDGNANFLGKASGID

As to `Fc1ccccc1Cn1nc(-c2ncc(F)c(N3CCOCC3)n2)cc1-c1ccon1` [Compound I-3], the Emax in experiment [1] was in the range of 60 to 80%; in experiment [2], 80 to 100%.
Regarding `Fc1ccccc1Cn1nc(-c2ncc(F)c(N3CCn4c(nnc4C(F)(F)F)C3)n2)cc1-c1ccon1` [Compound I-16], the Emax in experiment [1] and in experiment [2] was 100 to 120% each time. Also, the pEC50 in experiment [1] (setting [4]) and in experiment [2] was 7.00 to 9.00 each time. The EC50 in experiment [3] is < 0.1 µM.
On to `N#Cc1cnc(-c2cc(-c3ccon3)n(Cc3ccccc3F)n2)nc1N1CCOCC1` [Compound I-29], for which, in experiment [2], the maximum response (Emax) was in the range of 40 to 60% and the pEC50 is 6.30 to 7.00.
Consider `Fc1ccccc1Cn1nc(-c2ncc(F)c(NC3CCNCC3)n2)cc1-c1ccon1` [Compound I-36], for which the Emax in experiment [1] lay within 40 to 60%; in experiment [2], 80 to 100%. The values for the pEC50 in experiment [1] (setting [4]) and in experiment [2] were 5.30 to 6.00 and 6.30 to 7.00, respectively.
On to `COC(=O)Nc1nc(-c2cc(-c3ccon3)n(Cc3ccccc3F)n2)ncc1F` [Compound I-51], for which the pEC50 in experiment [1] (top of curve fitted to 100%, read-out: HEK assay EC50 - constrained) is 5.30 to 6.00. For the same compound, in experiment [2], the maximum response (Emax) lay in the range of 80 to 100% and the pEC50 was 6.00 to 6.30.
For `CC(C)[C@@H](C(=O)O)N(C)c1nc(-c2cc(-c3ccon3)n(Cc3ccccc3F)n2)ncc1F` [Compound I-89], the Emax in experiment [1] fell in the range of 60 to 80%. Also, in experiment [1] (setting [4]), the pEC50 was 7.00 to 9.00. Also, the EC50 in experiment [3] was < 0.1 µM. Also, the “Rat Mean Arterial Pressure peak change from baseline at 10 mpk” value (shortened to “Rat Mean Arterial Pressure peak change”) with Sprague-Dawley rats was “C (C = peak change from baseline at 10 mpk < −20)”.
`CC1(C(=O)O)CCN(c2nc(-c3cc(-c4ccon4)n(Cc4ccccc4F)n3)ncc2F)C1` (stereo not drawn) [Compound I-143]: the Emax in experiment [1] is 80 to 100%. Besides, in experiment [1] (setting [4]), the negative logarithm of the EC50 (pEC50) was 6.30 to 7.00. Besides, the “Rat Mean Arterial Pressure peak change” value in the experiment on Sprague-Dawley rats was “B (B = −20 ≤ peak change from baseline at 10 mpk ≤ −10)”.
On to `O=C(O)C1(C(F)(F)F)CCN(c2nc(-c3cc(-c4ccon4)n(Cc4ccccc4F)n3)ncc2F)C1` (stereo not drawn) [Compound I-185], for which the Emax in experiment [1] was 100 to 120%. Also, the negative logarithm of the EC50 (pEC50) in experiment [1] (setting [4]) is 5.30 to 6.00. Also, in the experiment with Sprague-Dawley rats, the “Rat Mean Arterial Pressure peak change” value was “A (A = −10 < peak change from baseline at 10 mpk < 0)”.
On to `O=C(O)C1(c2ccccc2)CCN(c2nc(-c3cc(-c4ccon4)n(Cc4ccccc4F)n3)ncc2F)CC1` [Compound I-186], for which the Emax in experiment [1] was in the range of 80 to 100%. Also, in experiment [1] (setting [4]), the negative-log EC50 (pEC50) was 7.00 to 9.00. In experiment [3], the EC50 is < 0.1 µM. Further, the “Rat Mean Arterial Pressure peak change” value with Sprague-Dawley rats is listed as “B (B = −20 ≤ peak change from baseline at 10 mpk ≤ −10)”.
For the compound `CC(C)[C@@H](C(=O)NS(=O)(=O)C1CC1)N(C)c1nc(-c2cc(-c3ccon3)n(Cc3ccccc3F)n2)ncc1F` [Compound I-187], in experiment [1], the Emax lay in the range of 80 to 100%. Besides, the pEC50 in experiment [1] (setting [4]) is 7.00 to 9.00. The EC50 in experiment [3] was < 0.1 µM. Besides, the “Rat Mean Arterial Pressure peak change” value with Sprague-Dawley rats was “A (A = −10 < peak change from baseline at 10 mpk < 0)”.
Take `CC1(C(=O)O)CCN(c2nc(-c3nc(-c4ccon4)n(Cc4ccccc4F)n3)ncc2F)CC1` [Compound I-249]: the figures for the Emax in experiment [1] and in experiment [2] were 60 to 80% and 100 to 120%, respectively. Also, the negative logarithm of the EC50 (pEC50) is 5.30 to 6.00 in experiment [1] (setting [4]) and 6.00 to 6.30 in experiment [2].
As to `O=C(O)[C@H]1[C@@H]2CN(c3nc(-c4cc(-c5ccon5)n(Cc5ccccc5F)n4)ncc3F)C[C@@H]21` [Compound I-271], in experiment [2], the Emax is 80 to 100% and the pEC50 was 7.00 to 9.00.
Take `CC(C)C1(C(=O)O)CCN(c2nc(-c3cc(-c4ccon4)n(Cc4ccccc4F)n3)ncc2F)CC1` [Compound I-306]: the Emax in experiment [1] fell in the range of 80 to 100%. Also, the negative logarithm of the EC50 (pEC50) in experiment [1] (setting [4]) is 7.00 to 9.00. Moreover, the EC50 in experiment [3] is < 0.1 µM. For the same compound, the “Rat Mean Arterial Pressure peak change” value in the experiment with Sprague-Dawley rats is reported as “B (B = −20 ≤ peak change from baseline at 10 mpk ≤ −10)”.
On to `OC[C@@H](O)CNc1nc(-c2cc(-c3ccon3)n(Cc3ccccc3F)n2)ncc1F` [Compound I-313], for which the EC50 in experiment [3] is < 0.1 µM. In addition, the “Rat Mean Arterial Pressure peak change” value in the experiment on Sprague-Dawley rats is recorded as “C (C = peak change from baseline at 10 mpk < −20)”.
The like results for `OCC(CO)Nc1nc(-c2cc(-c3ccon3)n(Cc3ccccc3F)n2)ncc1F` [Compound I-315] were, in that order, < 0.1 µM and “C (C = peak change from baseline at 10 mpk < −20)”.
The like results for `OC[C@H](O)CNc1nc(-c2cc(-c3ccon3)n(Cc3ccccc3F)n2)ncc1F` [Compound I-316] were, in that order, < 0.1 µM and “C (C = peak change from baseline at 10 mpk < −20)”.
Regarding `OC(CNc1nc(-c2cc(-c3ccon3)n(Cc3ccccc3F)n2)ncc1F)(C(F)(F)F)C(F)(F)F` [Compound I-324], in experiment [3], the EC50 was 0.101 to 1 µM. The “Rat Mean Arterial Pressure peak change” value with Sprague-Dawley rats is recorded as “C (C = peak change from baseline at 10 mpk < −20)”.
For `OC(CNc1nc(-c2cc(-c3ccon3)n(Cc3ccccc3F)n2)ncc1F)C(F)(F)F` (stereo not drawn) [Compound I-337], in that order: < 0.1 µM and “C (C = peak change from baseline at 10 mpk < −20)”.
The like results for `C[C@H]1CCCN(c2nc(-c3cc(-c4ccon4)n(Cc4ccccc4F)n3)ncc2F)[C@H]1c1nn[nH]n1` [Compound I-341] were, in that order, < 0.1 µM and “A (A = −10 < peak change from baseline at 10 mpk < 0)”.
For `CN(CC1(C(=O)O)CCC1)c1nc(-c2cc(-c3ccon3)n(Cc3ccccc3F)n2)ncc1F` [Compound I-342], in that order: < 0.1 µM and “C (C = peak change from baseline at 10 mpk < −20)”.
With `O=S(=O)(NC1CN(c2nc(-c3cc(-c4ccon4)n(Cc4ccccc4F)n3)ncc2F)C1)C(F)(F)F` [Compound I-388], the EC50 in experiment [3] is < 0.1 µM. Further, the “Rat Mean Arterial Pressure peak change” value in the experiment on Sprague-Dawley rats is listed as “B (B = −20 ≤ peak change from baseline at 10 mpk ≤ −10)”.
The like results for `CC(O)(CNc1nc(-c2cc(-c3ccon3)n(Cc3ccccc3F)n2)ncc1F)C(N)=O` (stereo not drawn) [Compound I-389] were, in that order, < 0.1 µM and “C (C = peak change from baseline at 10 mpk < −20)”.
For `O=C(Nc1ccnc(-c2cc(-c3ccon3)n(Cc3ccccc3F)n2)n1)C(O)(C(F)(F)F)C(F)(F)F` [Compound I-400], in that order: 0.101 to 1 µM and “B (B = −20 ≤ peak change from baseline at 10 mpk ≤ −10)”.
The like results for `NC(=O)C(O)(CNc1nc(-c2cc(-c3ccon3)n(Cc3ccccc3F)n2)ncc1F)C(F)(F)F` (stereo not drawn) [Compound I-405] were, in that order, 0.101 to 1 µM and “C (C = peak change from baseline at 10 mpk < −20)”.
